# Tested on: not listed separately
# Assay: in vitro
# Details: human, hela-ace2 cells, 50.0
row,SMILES,CC50 at 24 h [µM]
1,CC(C)[C@@H](Nc1ncnc2[nH]c(-c3cncc(S(C)(=O)=O)c3)cc12)c1ccc2c(c1)S(=O)(=O)CCC2 [ASAP-0012320],> 20
2,CNC(=O)c1cccc(-c2cc3c(N[C@@H](c4ccc5c(c4)S(=O)(=O)CCC5)C(C)C)ncnc3[nH]2)c1 [ASAP-0012344],> 20

# Tested on: HeLa-ACE2 cells
# Assay: not given
# Details: HeLa-ACE2 cytotoxicity
SMILES,CC50 [µM],cc10 [µM]
CC(C)[C@@H](Nc1ncnc2[nH]c(-c3cncc(S(C)(=O)=O)c3)cc12)c1ccc2c(c1)S(=O)(=O)CCC2 [ASAP-0012320],> 20,> 20.0

# Same assay, conditions: HeLa-ACE2 cytotoxicity; highest measured response of the dose series
row,SMILES,perc_max_measured [%]
1,CC(C)[C@@H](Nc1ncnc2[nH]c(-c3cncc(S(C)(=O)=O)c3)cc12)c1ccc2c(c1)S(=O)(=O)CCC2 [ASAP-0012320],98.548

# Same assay, conditions: HeLa-ACE2 cytotoxicity; lowest measured response of the dose series
row,SMILES,perc_min_measured [%]
1,CC(C)[C@@H](Nc1ncnc2[nH]c(-c3cncc(S(C)(=O)=O)c3)cc12)c1ccc2c(c1)S(=O)(=O)CCC2 [ASAP-0012320],93.918

# Same assay, conditions: protocol HeLa-ACE2 cytotoxicity
SMILES,CC50 [µM],cc10 [µM]
CNC(=O)c1cccc(-c2cc3c(N[C@@H](c4ccc5c(c4)S(=O)(=O)CCC5)C(C)C)ncnc3[nH]2)c1 [ASAP-0012344],> 20,> 20.0

# Same assay, conditions: protocol HeLa-ACE2 cytotoxicity; highest measured response of the dose series
row,SMILES,perc_max_measured [%]
1,CNC(=O)c1cccc(-c2cc3c(N[C@@H](c4ccc5c(c4)S(=O)(=O)CCC5)C(C)C)ncnc3[nH]2)c1 [ASAP-0012344],109.077

# Same assay, conditions: protocol HeLa-ACE2 cytotoxicity; lowest measured response of the dose series
row,SMILES,perc_min_measured [%]
1,CNC(=O)c1cccc(-c2cc3c(N[C@@H](c4ccc5c(c4)S(=O)(=O)CCC5)C(C)C)ncnc3[nH]2)c1 [ASAP-0012344],84.376

# Tested on: not listed separately
# Assay: Permeability Papp (AB) MDR1/MDCKII
# Details: In vitro MDR1-MDCKII permeability, A to B, no inhibitor
row,SMILES,papp_a_to_b_mean [×10⁻⁶ cm/s]
1,CC(C)[C@@H](Nc1ncnc2[nH]c(-c3cncc(S(C)(=O)=O)c3)cc12)c1ccc2c(c1)S(=O)(=O)CCC2 [ASAP-0012320],0.491
2,CNC(=O)c1cccc(-c2cc3c(N[C@@H](c4ccc5c(c4)S(=O)(=O)CCC5)C(C)C)ncnc3[nH]2)c1 [ASAP-0012344],0.627

# Same assay, conditions: In vitro MDR1-MDCKII permeability, recovery A to B, no inhibitor
row,SMILES,perc_recovery_a_to_b_mean [%]
1,CC(C)[C@@H](Nc1ncnc2[nH]c(-c3cncc(S(C)(=O)=O)c3)cc12)c1ccc2c(c1)S(=O)(=O)CCC2 [ASAP-0012320],66.6
2,CNC(=O)c1cccc(-c2cc3c(N[C@@H](c4ccc5c(c4)S(=O)(=O)CCC5)C(C)C)ncnc3[nH]2)c1 [ASAP-0012344],67.1

# Target: SARS-CoV-2 nsp3-mac1 (Severe acute respiratory syndrome coronavirus 2, UniProt P0DTD1)
# Assay: biochemical
# Details: Figure 4A, racemic mixture; read-out: HTRF IC50
row,SMILES,IC50 [µM]
1,FC(F)(F)C(Nc1ncnc2[nH]ccc12)c1ccc2c(c1)OCCO2 (stereo not drawn) [ASAP-0000870],19

# Same assay, conditions: HTRF IC50, Figure 4A, racemic mixture
row,SMILES,IC50 [µM]
1,COc1ccc(C(Nc2ncnc3[nH]ccc23)C(C)C)cc1 (stereo not drawn) [ASAP-0000752],7.2
2,O=C(O)C(Nc1ncnc2[nH]ccc12)c1ccc2c(c1)OCCO2 (stereo not drawn) [ASAP-0000789],8.7
3,c1nc(NC(c2ccc3c(c2)OCCO3)C2CCC2)c2cc[nH]c2n1 (stereo not drawn) [ASAP-0000866],5.8
4,CC(C)(C)C(Nc1ncnc2[nH]ccc12)c1ccc2c(c1)OCCO2 (stereo not drawn) [ASAP-0008277],1.1

# Same assay, conditions: IC50, nsp3-mac1 activity, Figures 1-3 and text
row,SMILES,IC50 [µM]
1,CC(C)C(Nc1ncnc2[nH]c(-c3cnn(C)c3)cc12)c1ccc2c(c1)OCCO2 (stereo not drawn) [ASAP-0008596],0.56

# Tested on: not listed separately
# Assay: LogD
# Details: pH 7.4; In vitro LogD
row,SMILES,logd
1,CC(C)[C@@H](Nc1ncnc2[nH]c(-c3cncc(S(C)(=O)=O)c3)cc12)c1ccc2c(c1)S(=O)(=O)CCC2 [ASAP-0012320],3.1
2,CNC(=O)c1cccc(-c2cc3c(N[C@@H](c4ccc5c(c4)S(=O)(=O)CCC5)C(C)C)ncnc3[nH]2)c1 [ASAP-0012344],3.7

# Tested on: not listed separately
# Assay: In vitro kinetic solubility
# Details: In vitro kinetic solubility, ph 7.4
row,SMILES,solubility_mean [µM]
1,CC(C)[C@@H](Nc1ncnc2[nH]c(-c3cncc(S(C)(=O)=O)c3)cc12)c1ccc2c(c1)S(=O)(=O)CCC2 [ASAP-0012320],31
2,CNC(=O)c1cccc(-c2cc3c(N[C@@H](c4ccc5c(c4)S(=O)(=O)CCC5)C(C)C)ncnc3[nH]2)c1 [ASAP-0012344],15

# Tested on: not listed separately
# Assay: Hepatic microsomal stability, MLM
# Format: in vitro ADME
# Details: In vitro mouse liver microsomal stability
SMILES,clint [µL/min/mg],perc_remaining [%],t_half [min]
CC(C)[C@@H](Nc1ncnc2[nH]c(-c3cncc(S(C)(=O)=O)c3)cc12)c1ccc2c(c1)S(=O)(=O)CCC2 [ASAP-0012320],272.0,1.0,6.1
CNC(=O)c1cccc(-c2cc3c(N[C@@H](c4ccc5c(c4)S(=O)(=O)CCC5)C(C)C)ncnc3[nH]2)c1 [ASAP-0012344],882.0,1.0,1.9

# Same assay, conditions: In vitro mouse liver microsomal stability, no cofactor
row,SMILES,perc_remaining_no_cofactor [%]
1,CC(C)[C@@H](Nc1ncnc2[nH]c(-c3cncc(S(C)(=O)=O)c3)cc12)c1ccc2c(c1)S(=O)(=O)CCC2 [ASAP-0012320],112.0
2,CNC(=O)c1cccc(-c2cc3c(N[C@@H](c4ccc5c(c4)S(=O)(=O)CCC5)C(C)C)ncnc3[nH]2)c1 [ASAP-0012344],101.0

# Tested on: not listed separately
# Assay: Hepatic microsomal stability, HLM
# Format: in vitro ADME, human
# Details: In vitro human liver microsomal stability
SMILES,clint [µL/min/mg],perc_remaining [%],t_half [min]
CC(C)[C@@H](Nc1ncnc2[nH]c(-c3cncc(S(C)(=O)=O)c3)cc12)c1ccc2c(c1)S(=O)(=O)CCC2 [ASAP-0012320],635.0,1.0,2.6
CNC(=O)c1cccc(-c2cc3c(N[C@@H](c4ccc5c(c4)S(=O)(=O)CCC5)C(C)C)ncnc3[nH]2)c1 [ASAP-0012344],455.0,0.0,3.7

# Same assay, conditions: In vitro human liver microsomal stability; no cofactor
row,SMILES,perc_remaining_no_cofactor [%]
1,CC(C)[C@@H](Nc1ncnc2[nH]c(-c3cncc(S(C)(=O)=O)c3)cc12)c1ccc2c(c1)S(=O)(=O)CCC2 [ASAP-0012320],104.0
2,CNC(=O)c1cccc(-c2cc3c(N[C@@H](c4ccc5c(c4)S(=O)(=O)CCC5)C(C)C)ncnc3[nH]2)c1 [ASAP-0012344],93.0

# Tested on: SARS-CoV-2, isolate USA-WA1/2020
# Assay: microbe, parasite or virus in culture
# Format: cell-based
# Details: HeLa-ACE2 SARS-CoV-2 antiviral effect without P-gp inhibitor; maximum measured response of dose series
row,SMILES,perc_max_measured [%]
1,CC(C)[C@@H](Nc1ncnc2[nH]c(-c3cncc(S(C)(=O)=O)c3)cc12)c1ccc2c(c1)S(=O)(=O)CCC2 [ASAP-0012320],119.816
2,CNC(=O)c1cccc(-c2cc3c(N[C@@H](c4ccc5c(c4)S(=O)(=O)CCC5)C(C)C)ncnc3[nH]2)c1 [ASAP-0012344],108.746

# Same assay, conditions: HeLa-ACE2 SARS-CoV-2 antiviral effect without P-gp inhibitor; minimum measured response of dose series
row,SMILES,perc_min_measured [%]
1,CC(C)[C@@H](Nc1ncnc2[nH]c(-c3cncc(S(C)(=O)=O)c3)cc12)c1ccc2c(c1)S(=O)(=O)CCC2 [ASAP-0012320],96.629
2,CNC(=O)c1cccc(-c2cc3c(N[C@@H](c4ccc5c(c4)S(=O)(=O)CCC5)C(C)C)ncnc3[nH]2)c1 [ASAP-0012344],56.34

# Same assay, conditions: HeLa-ACE2 SARS-CoV-2 antiviral effect without P-gp inhibitor; read-out: ec50
row,SMILES,EC50 [µM]
1,CC(C)[C@@H](Nc1ncnc2[nH]c(-c3cncc(S(C)(=O)=O)c3)cc12)c1ccc2c(c1)S(=O)(=O)CCC2 [ASAP-0012320],> 20
2,CNC(=O)c1cccc(-c2cc3c(N[C@@H](c4ccc5c(c4)S(=O)(=O)CCC5)C(C)C)ncnc3[nH]2)c1 [ASAP-0012344],> 20

# Same assay, conditions: HeLa-ACE2 SARS-CoV-2 antiviral effect without P-gp inhibitor; read-out: ec90
row,SMILES,EC90 [µM]
1,CC(C)[C@@H](Nc1ncnc2[nH]c(-c3cncc(S(C)(=O)=O)c3)cc12)c1ccc2c(c1)S(=O)(=O)CCC2 [ASAP-0012320],> 20
2,CNC(=O)c1cccc(-c2cc3c(N[C@@H](c4ccc5c(c4)S(=O)(=O)CCC5)C(C)C)ncnc3[nH]2)c1 [ASAP-0012344],> 20

# From article doi:10.1101/2024.08.19.608619, “Discovery of potent SARS-CoV-2 nsp3 macrodomain inhibitors uncovers lack of translation to cellular antiviral response” (bioRxiv, 2024)
